Results reported in patent publication US20070275984A1, “Novel Thieno-Pyridine and Thieno-Pyrimidine Derivatives and Their Use as Positive Allosteric Modulators of Mglur2-Receptors” (JANSSEN PHARMACEUTICA N.V., priority 2004, published 2007).

Structure (SMILES)	melting point [°C]
CCc1cc2c(NC(C)c3ccccc3)ncnc2s1 (stereo not drawn)	141
Cc1nc(N2CCc3ccccc3C2)c2cc(C)sc2n1 [Compound 4, 2-(2,6-dimethylthieno[2,3-d]pyrimidin-4-yl)-1,2,3,4-tetrahydroisoquinoline]	105
COc1cccc(CNc2nc(C)nc3sc(C)cc23)c1 [Compound 6, N-(3-methoxybenzyl)-2,6-dimethylthieno[2,3-d]pyrimidin-4-amine]	97
CCc1nc(NCc2cccc(OC)c2)c2cc(C)sc2n1 [Compound 7, N-(3-methoxybenzyl)-2-ethyl-6-methylthieno[2,3-d]pyrimidin-4-amine]	108.4
COc1ccc(CNc2nc(C)nc3sc(C)cc23)cc1 [Compound 8, N-(4-methoxybenzyl)-2,6-dimethylthieno[2,3-d]pyrimidin-4-amine]	127.5
COc1ccc(CNc2nc(C)nc3sc(C)cc23)cc1OC [Compound 9, N-(3,4-dimethoxybenzyl)-2,6-dimethylthieno[2,3-d]pyrimidin-4-amine]	142
Cc1nc(NCc2cccc(Cl)c2)c2cc(C)sc2n1 [Compound 10, N-(3-chlorobenzyl)-2,6-dimethylthieno[2,3-d]pyrimidin-4-amine]	136.5
COc1ccc(CCNc2nc(C)nc3sc(C)cc23)cc1OC [Compound 33, N-(3,4-dimethoxyphenethyl)-2,6-dimethylthieno[2,3-d]pyrimidin-4-amine]	85
CCc1nc(NCCc2ccc(OC)c(OC)c2)c2cc(C)sc2n1 [Compound 34, N-(3,4-dimethoxyphenethyl)-2-ethyl-6-methylthieno[2,3-d]pyrimidin-4-amine]	105
COc1cc(CCNc2nc(C)nc3sc(C)cc23)cc(OC)c1 [Compound 35, N-(3,5-dimethoxyphenethyl)-2,6-dimethylthieno[2,3-d]pyrimidin-4-amine]	106 to 107
COc1ccc(CCN(C)c2nc(C)nc3sc(C)cc23)cc1 [Compound 51, N-(4-methoxyphenethyl)-N,2,6-trimethylthieno[2,3-d]pyrimidin-4-amine]	81
COc1ccc(CCCNc2nc(C)nc3sc(C)cc23)cc1 [Compound 56, N-(3-(4-methoxyphenyl)propyl)-2,6-dimethylthieno[2,3-d]pyrimidin-4-amine]	120
COCCCNc1nc(C)nc2sc(C)cc12 [Compound 57, N-(3-methoxypropyl)-2,6-dimethylthieno[2,3-d]pyrimidin-4-amine]	90
COc1cccc(CNc2nc(C)nc3sc(Cc4ccccc4)cc23)c1 [Compound 60, N-(3-methoxybenzyl)-6-benzyl-2-methylthieno[2,3-d]pyrimidin-4-amine]	107
CCc1cc2c(NCc3ccccc3)ncnc2s1 [Compound 64, N-benzyl-6-ethylthieno[2,3-d]pyrimidin-4-amine]	133
CCc1cc2c(NCc3cccc(OC)c3)ncnc2s1 [Compound 65, N-(3-methoxybenzyl)-6-ethylthieno[2,3-d]pyrimidin-4-amine]	99
CCc1cc2c(NCc3ccc(F)cc3)ncnc2s1 [Compound 66, N-(4-fluorobenzyl)-6-ethylthieno[2,3-d]pyrimidin-4-amine]	104
CCc1cc2c(NCCc3cccc(OC)c3)ncnc2s1 [Compound 69, N-(3-methoxyphenethyl)-6-ethylthieno[2,3-d]pyrimidin-4-amine]	81
CCc1cc2c(NCCc3ccc(OC)cc3)ncnc2s1 [Compound 70, N-(4-methoxyphenethyl)-6-ethylthieno[2,3-d]pyrimidin-4-amine]	133
CCc1cc2c(NCCc3ccc(OC)cc3)nc(C)nc2s1 [Compound 71, N-(4-methoxyphenethyl)-6-ethyl-2-methylthieno[2,3-d]pyrimidin-4-amine]	102
CCc1cc2c(NCCc3ccc(OC)c(OC)c3)ncnc2s1 [Compound 72, N-(3,4-dimethoxyphenethyl)-6-ethylthieno[2,3-d]pyrimidin-4-amine]	124

Continued, values first:

melting point [°C]	Structure (SMILES)
111	Cc1nc(NCCc2ccccc2)c2ccsc2n1 [Compound 1, 2-methyl-N-phenethylthieno[2,3-d]pyrimidin-4-amine]
89	CCc1nc(NCCc2ccccc2)c2ccsc2n1 [Compound 2, 2-ethyl-N-phenethylthieno[2,3-d]pyrimidin-4-amine]
159	Cc1nc(NCC(=O)c2ccccc2)c2cc(C)sc2n1 [Compound 12, 2-(2,6-dimethylthieno[2,3-d]pyrimidin-4-ylamino)-1-phenylethanone]
106	Cc1nc(NCCc2ccccc2)c2cc(C)sc2n1 [Compound 13, 2,6-dimethyl-N-phenethylthieno[2,3-d]pyrimidin-4-amine]
119	Cc1cc2c(NCCc3ccccc3)nc(Cl)nc2s1 [Compound 14, 2-chloro-6-methyl-N-phenethylthieno[2,3-d]pyrimidin-4-amine]
142	Cc1cc2c(NCCc3ccccc3)nc(N(C)C)nc2s1 [Compound 16, N2,N2,6-trimethyl-N4-phenethylthieno[2,3-d]pyrimidine-2,4-diamine]
115	Cc1ccc(CCNc2nc(C)nc3sc(C)cc23)cc1 [Compound 19, N-(4-methylphenethyl)-2,6-dimethylthieno[2,3-d]pyrimidin-4-amine]
62	CCc1ccc(CCNc2nc(C)nc3sc(C)cc23)cc1 [Compound 20, N-(4-ethylphenethyl)-2,6-dimethylthieno[2,3-d]pyrimidin-4-amine]
98.2	Cc1nc(NCCc2cccc(C(F)(F)F)c2)c2cc(C)sc2n1 [Compound 21, N-(3-(trifluoromethyl)phenethyl)-2,6-dimethylthieno[2,3-d]pyrimidin-4-amine]
162.5	Cc1nc(NCCc2cccc(O)c2)c2cc(C)sc2n1 [Compound 22, N-(3-hydroxyphenethyl)-2,6-dimethylthieno[2,3-d]pyrimidin-4-amine]
166	Cc1nc(NCCc2ccc(O)cc2)c2cc(C)sc2n1 [Compound 23, 4-(2-(2,6-dimethylthieno[2,3-d]pyrimidin-4-ylamino)ethyl)phenol]
134	COc1ccccc1CCNc1nc(C)nc2sc(C)cc12 [Compound 24, N-(2-methoxyphenethyl)-2,6-dimethylthieno[2,3-d]pyrimidin-4-amine]
139	COc1cccc(CCNc2nc(C)nc3sc(C)cc23)c1 [Compound 25, N-(3-methoxyphenethyl)-2,6-dimethylthieno[2,3-d]pyrimidin-4-amine]
83.5	CCc1nc(NCCc2cccc(OC)c2)c2cc(C)sc2n1 [Compound 26, N-(3-methoxyphenethyl)-2-ethyl-6-methylthieno[2,3-d]pyrimidin-4-amine]
199	COc1ccc(CCNc2ncnc3sc(C)cc23)cc1 [Compound 27, N-(4-methoxyphenethyl)-6-methylthieno[2,3-d]pyrimidin-4-amine]
82	CCc1nc(NCCc2ccc(OC)cc2)c2cc(C)sc2n1 [Compound 29, N-(4-methoxyphenethyl)-2-ethyl-6-methylthieno[2,3-d]pyrimidin-4-amine]
101 to 103	CCOc1ccc(CCNc2nc(C)nc3sc(C)cc23)cc1 [Compound 30, N-(4-ethoxyphenethyl)-2,6-dimethylthieno[2,3-d]pyrimidin-4-amine]
135	COc1cc(CCNc2nc(C)nc3sc(C)cc23)ccc1O [Compound 31, 4-(2-(2,6-dimethylthieno[2,3-d]pyrimidin-4-ylamino)ethyl)-2-methoxyphenol]
129	Cc1nc(NCCc2ccc(Cl)cc2)c2cc(C)sc2n1 [Compound 38, N-(4-chlorophenethyl)-2,6-dimethylthieno[2,3-d]pyrimidin-4-amine]
117.2	Cc1nc(NCCc2ccc(F)cc2)c2cc(C)sc2n1 [Compound 41, N-(4-fluorophenethyl)-2,6-dimethylthieno[2,3-d]pyrimidin-4-amine]
176 to 179.5	Cc1nc(NCCc2ccc(S(C)(=O)=O)cc2)c2cc(C)sc2n1 [Compound 44, N-(4-(methylsulfonyl)phenethyl)-2,6-dimethylthieno[2,3-d]pyrimidin-4-amine]
156.5	Cc1nc(NCCOc2ccccc2)c2cc(C)sc2n1 [Compound 47, 2,6-dimethyl-N-(2-phenoxyethyl)thieno[2,3-d]pyrimidin-4-amine]
139	Cc1nc(NCCc2ccccn2)c2cc(C)sc2n1 [Compound 48, 2,6-dimethyl-N-(2-(pyridin-2-yl)ethyl)thieno[2,3-d]pyrimidin-4-amine]
102.5 to 103.7	Cc1nc(NCCc2cccs2)c2cc(C)sc2n1 [Compound 50, 2,6-dimethyl-N-(2-(thiophen-2-yl)ethyl)thieno[2,3-d]pyrimidin-4-amine]
94	Cc1nc(NCC(C)c2ccccc2)c2cc(C)sc2n1 (stereo not drawn) [Compound 52, 2,6-dimethyl-N-(2-phenylpropyl)thieno[2,3-d]pyrimidin-4-amine]
117	Cc1nc(NCC(O)c2ccccc2)c2cc(C)sc2n1 (stereo not drawn) [Compound 53, 2-(2,6-dimethylthieno[2,3-d]pyrimidin-4-ylamino)-1-phenylethanol]
108	Cc1nc(NCCCCc2ccccc2)c2cc(C)sc2n1 [Compound 54, 2,6-dimethyl-N-(4-phenylbutyl)thieno[2,3-d]pyrimidin-4-amine]
122	COc1cccc(CCCNc2nc(C)nc3sc(C)cc23)c1 [Compound 55, N-(3-(3-methoxyphenyl)propyl)-2,6-dimethylthieno[2,3-d]pyrimidin-4-amine]
157	CN(C)C(=O)c1cc2c(NCCc3ccccc3)ncnc2s1 [Compound 62, N,N-dimethyl-4-(phenethylamino)thieno[2,3-d]pyrimidine-6-carboxamide]
118	CCc1cc2c(NCCc3ccccc3)ncnc2s1 [Compound 68, 6-ethyl-N-phenethylthieno[2,3-d]pyrimidin-4-amine]
